Assay results published in patent US20220153746A1, “NITROGEN OXIDE-DONATING PDE-5 AND/OR PDE-6 INHIBITOR COMPOUNDS, AND USES THEREOF” (ILDONG PHARMACEUTICAL CO., LTD., priority 2020, published 2022).
Values joined by “and” are separate entries in the source; they are usually repeats but may differ in a detail not shown here. Equal values may be shown once.

Experiment: TD Phase (Groups 1 and 3): plasma and ocular tissue concentrations and pharmacokinetics of Compound 18 and its metabolite Compound 4 after once daily ocular instillation of Compound 18 nanosuspension for 7 days
Assay type: in vivo, New Zealand white rabbits
Conditions: for Compound 18 Lens Homogenate Conc.: homogenate dilution factor 5; for Compound 18 Iris/Ciliary Body Homogenate Conc. / Compound 18 Optic Nerve Homogenate Conc. / Compound 18 Retina Homogenate Conc. / Compound 18 Trahecular Meshwork Homogenate Conc.: homogenate dilution factor 20; for Cornea homogenate concentration: homogenate dilution factor 15
From the text: This example illustrates the procedures and results for the levels of Compound 18 and its metabolite Compound 4 in plasma and ocular tissues of normotensive rabbits following ocular instillation of Compound 18 once daily for 7 consecutive days.
Twenty five (25) male New Zealand white rabbits were divided into 5 groups of varying amounts of animals per group.
The Test article, Compound 18 was formulated as a 2% nanosuspension in DI water containing 0.2% PS80 (polyoxyethylenesorbitan, monooleate (Tween 80)) and 0.4% HPMC (hydroxypropylmethylcellulose) at pH 6.77. Referred to herein as “Compound 18 nanosuspension.”
The study consisted of three groups (Groups 1-3) of 19 male rabbits (NZW) that underwent once daily morning ocular installation (1 eyedrop) for 7 consecutive days (Day 0-6). Groups 4-5 each consisted of 3 male rabbits (NZW) that were not dosed.
Blood samples (1 mL) were collected from the jugular vein at the intervals set out below for each group. The samples were then inverted several times following collection and held on wet ice until centrifuged. Samples were centrifuged within 60 minutes of collection under refrigeration (set at 5° C. for 10 minutes at 2000 g.
Group 1 (Pilot Study, terminal blood collection): blood was collected from 3 animals at 1 hour post day 7 dose of Compound 18 nanosuspension.
Group 3 (TD Phase, terminal blood collection): blood was collected from 3 animals at 0.5 hour, 3 animals at 2 hours, 3 animals at 4 hours, and 3 animals at 8 hours post day 7 dose of Compound 18 nanosuspension.
Group 1 (Pilot Study): 3 animals were terminated at 1 hour post Day 7 dose of Compound 18 nanosuspension. Following blood collection and termination, ocular tissues (aqueous humor, vitreous humor, cornea, iris/ciliary body, lens, optic nerve, retina, sclera/choroid, and trabecular meshwork) were collected from each animal and the tissue weights were recorded. Note: sclera and choroid were collected together. Iris and ciliary body were collected together.
Group 3 (TD Phase): 3 animals were terminated at 0.5 hour, 3 animals at 2 hours, 3 animals at 4 hours, and 3 animals at 8 hours post Day 7 dose of Compound 18 nanosuspension. Following blood collection and termination, ocular tissues (aqueous humor, vitreous humor, cornea, iris/ciliary body, lens, optic nerve, retina, sclera/choroid, and trabecular meshwork) were collected from each animal and the tissue weights were recorded. Note: sclera and choroid were collected together. Iris and ciliary body were collected together.
Plasma and tissue samples from treated animals (Groups 1-3) were analyzed for Compound 18 and its metabolite Compound 4 concentrations by LC-MS/MS.
Pharmacokinetic analysis was conducted using WinNonlin Version 6.2.1 (Pharsight, Mountain View, Calif.), operating as a validated software system. Noncompartmental analysis was conducted using the extravascular administration model for ocular instillation dosing.
The peak plasma and ocular tissue concentration, time to achieve peak plasma and ocular tissue concentration, half-life, and area under the plasma and ocular tissue concentration-time curve (Cmax, Tmax, T1/2, and AUC) were calculated from the TD phase combined with the pilot study mean animal plasma and ocular tissue concentrations for each sampling time/dose group for Compound 18 and its metabolite Compound 4.
BA Assay: Quantitation Range 0.05 to 100 ng/mL for Compound 18, 0.15 to 100 ng/mL for Compound 4.
3. Pipet 50 μL of each type of pre-spiked ocular tissue samples (AH/VH) for QC samples, 50 μL of incurred aqueous humor, and vitreous humor sample (if applicable) into a 96 well plate.
Ocular Tissues Homogenate Preparation: Incurred rabbit ocular tissues were weighed in Genogrinder tubes (plastic tubes with small beads) at the time of removal from the animal and stored frozen (<−70° C.) until analysis. The rabbit incurred ocular tissues were thawed on wet ice. […]

[1] = TD Phase, Group 1, 1 h, individual animals
[2] = TD Phase, Group 1, 1 h, individual animals, BQL set to 0
[3] = TD Phase, Group 3, 0.5 h, individual animals
[4] = TD Phase, Group 3, 0.5 h, individual animals, BQL set to 0
[5] = TD Phase, Group 3, 2 h, individual animals
[6] = TD Phase, Group 3, 2 h, individual animals, BQL set to 0

With `CCCc1nn(C)c2c(=O)[nH]c(-c3cc(S(=O)(=O)N4CC(CCCO[N+](=O)[O-])C4)ccc3OCC)nc12` [Compound 18, 3-(1-((4-ethoxy-3-(1-methyl-7-oxo-3-propyl-6,7-dihydro-1H-pyrazolo[4,3-d]pyrimidin-5-yl)phenyl)sulfonyl)azetidin-3-yl)propyl nitrate] the AUC0-8 (Iris/Ciliary Body, Day 7, Compound 18 0.8 mg/kg ocular instillation once daily, Groups 1 and 3) was 150 ng·h/g, the “Compound 18 Vitreous Humor Conc.” value (TD Phase, Group 1, 1 h, Mean, BQL set to 0) was “BQL (BQL = Below lower limit of quantitation (0.0500 ng/mL for Compound 18)” and the “Compound 18 Aqueous Humor Conc.” value [1] was “BQL (BQL = Below lower limit of quantitation (0.0500 ng/mL for Compound 18)”. The “Compound 18 Plasma Conc.” value [1] was “BQL^a (BQL = Below lower limit of quantitation (0.0500 ng/mL for Compound 18) and 0.0581 ng/mL”, the “Compound 18 Vitreous Humor Conc.” value [1] was “BQL (BQL = Below lower limit of quantitation (0.0500 ng/mL for Compound 18)” and the “Final Compound 18 Optic Nerve Conc.” value [1] was 192 ng/g and 266 ng/g. The “Final Compound 18 Iris/Ciliary Body Conc.” value [2] was 0 ng/g and 18.7 ng/g and 302 ng/g, the “Final Compound 18 Lens Conc.” value [2] was 0 ng/g and the “Final Compound 18 Retina Conc.” value [2] was 6.24 ng/g and 20.2 ng/g and 27.8 ng/g. The “Compound 18 Lens Homogenate Conc.” value [1] was “BQL (BQL = Below lower limit of quantitation (0.0500 ng/mL for Compound 18)”, the “Compound 18 Iris/Ciliary Body Homogenate Conc.” value [1] was “BQL (BQL = Below lower limit of quantitation (0.0500 ng/mL for Compound 18) and 0.934 ng/mL and 15.1 ng/mL” and the “Compound 18 Optic Nerve Homogenate Conc.” value [1] was 9.59 ng/mL and 13.3 ng/mL. The “Compound 18 Retina Homogenate Conc.” value [1] was 0.312 ng/mL and 1.01 ng/mL and 1.39 ng/mL, the “Compound 18 Trahecular Meshwork Homogenate Conc.” value [1] was “BQL (BQL = Below lower limit of quantitation (0.0500 ng/mL for Compound 18)” and the “Compound 18 Aqueous Humor Conc.” value (TD Phase, Group 3, 0.5 h, Mean, BQL set to 0) was “BQL (BQL = Below lower limit of quantitation (0.0500 ng/mL for Compound 18)”. The “Compound 18 Aqueous Humor Conc.” value [3] was “BQL^a (BQL = Below lower limit of quantitation (0.0500 ng/mL for Compound 18)”, the “Compound 18 Plasma Conc.” value [3] was 0.627 ng/mL and 0.0972 ng/mL and 0.0599 ng/mL and the “Compound 18 Vitreous Humor Conc.” value [3] was “BQL^a (BQL = Below lower limit of quantitation (0.0500 ng/mL for Compound 18)”. The “Final Compound 18 Optic Nerve Conc.” value [3] was 116 ng/g and 30.4 ng/g and 183 ng/g, the “Final Compound 18 Sclera/Choroid Conc.” value [3] was 88.8 ng/g and 47.2 ng/g and 186 ng/g and the “Final Compound 18 Iris/Ciliary Body Conc.” value [4] was 2.24 ng/g and 0 ng/g and 268 ng/g. The “Final Compound 18 Lens Conc.” value [4] was 0 ng/g (2×) and 6.35 ng/g, the “Final Compound 18 Retina Conc.” value [4] was 20.2 ng/g and 29.8 ng/g and the “Compound 18 Lens Homogenate Conc.” value [3] was “BQL^1 (BQL = Below lower limit of quantitation (0.0500 ng/mL for Compound 18)”. The “Compound 18 Sclera/Choroid Homogenate Conc.” value (TD Phase, Group 3, 0.5 h, individual animals, homogenate dilution factor 8) was 11.1 ng/mL and 5.90 ng/mL and 23.3 ng/mL, the Cornea homogenate concentration [3] was “BQL^a (BQL = Below lower limit of quantitation (0.0500 ng/mL for Compound 18)” and the “Compound 18 Iris/Ciliary Body Homogenate Conc.” value [3] was 0.112 ng/mL and BQL^a (BQL = Below lower limit of quantitation (0.0500 ng/mL for Compound 18) and 13.4 ng/mL. The “Compound 18 Optic Nerve Homogenate Conc.” value [3] was 5.79 ng/mL and 1.52 ng/mL and 9.17 ng/mL, the “Compound 18 Retina Homogenate Conc.” value [3] was 1.01 ng/mL and 1.49 ng/mL and the “Compound 18 Trahecular Meshwork Homogenate Conc.” value [3] was “BQL^a (BQL = Below lower limit of quantitation (0.0500 ng/mL for Compound 18)”. The “Compound 18 Aqueous Humor Conc.” value (TD Phase, Group 3, 2 h, Mean, BQL set to 0) was “BQL (BQL = Below lower limit of quantitation (0.0500 ng/mL for Compound 18)”, the “Compound 18 Aqueous Humor Conc.” value [5] was “BQL (BQL = Below lower limit of quantitation (0.0500 ng/mL for Compound 18)” and the “Compound 18 Plasma Conc.” value [5] was “BQL (BQL = Below lower limit of quantitation (0.0500 ng/mL for Compound 18)”. For the same compound, the “Compound 18 Vitreous Humor Conc.” value [5] was “BQL (BQL = Below lower limit of quantitation (0.0500 ng/mL for Compound 18)”, the “Final Compound 18 Optic Nerve Conc.” value [5] was 24.4 ng/g and 1030 ng/g and 79.0 ng/g and the “Final Compound 18 Iris/Ciliary Body Conc.” value [6] was 1.27 ng/g and 15.4 ng/g and 0 ng/g. The “Final Compound 18 Lens Conc.” value [6] was 0 ng/g, the “Final Compound 18 Retina Conc.” value [6] was 31.5 ng/g and 69.4 ng/g and 3.40 ng/g and the “Compound 18 Lens Homogenate Conc.” value [5] was “BQL (BQL = Below lower limit of quantitation (0.0500 ng/mL for Compound 18)”. The Cornea homogenate concentration [5] was “BQL (BQL = Below lower limit of quantitation (0.0500 ng/mL for Compound 18)”, the “Compound 18 Iris/Ciliary Body Homogenate Conc.” value [5] was 0.0637 ng/mL and 0.772 ng/mL and BQL (BQL = Below lower limit of quantitation (0.0500 ng/mL for Compound 18) and the “Compound 18 Optic Nerve Homogenate Conc.” value [5] was 1.22 ng/mL and 51.5 ng/mL and 3.95 ng/mL.
